# Test results published in patent US20150125550A1, “APPLICATION OF 2,9-DI-SEC-BUTYL-1,10-PHENANTHROLINE AS A GLIOBLASTOMA TUMOR CHEMOTHERAPY” (priority 2013, published 2015).
# Columns and labels:
# [1] = test system: human foreskin fibroblasts (HFFs); experiment: SRB toxicity assay on human foreskin fibroblasts; format: cell-based; settings: Fibroblast
# Procedure: (§1) The murine (C57BL/6) glioma cell line, GL-26, which is highly tumorigenic in the C57BL/6 mice. GL-26 cells were cultured in DMEM/F12 supplemented with 10% FCS, 1% penicillin/streptomycin, 1% L-glutamine and 1% non-essential amino acids. Human foreskin fibroblasts (HFFs) were cultured in DMEM/F12 supplemented with 10% FCS and 1% penicillin/streptomycin. Primary murine astrocytes were purified from C57BL/6 neonate brains and cultured in DMEM/F12 supplemented with 10% FCS, 1% non-essential amino acids, 1% Lglutamine, 50 IU/ml penicillin, […] and 10 mM Hepes buffer.
# (§2) The sulforhodamine B (SRB) cytotoxicity assays were adapted from Skehan et al. (22). Briefly, either HFF, primary astrocytes or GL-26 cells were plated in 96-well plates at a density of 4,000 cells/well in a volume of 100 µL overnight at 37° C. and 5% CO2. DMSO stock solutions of SBP, MSBP or TMZ were used at a concentration range of 0.1-25 μM for 48 hr before the supernatant was discarded and the cells were fixed for 1 hr with 10% cold trichloroacetic acid (100 μL, per well). Cells used in recovery assay received fresh media for 48 hrs following the 48 hr drug incubation. The plate was then washed 5 times with de-ionized water, air dried, and stained with 0.4% SRB for 10 min (50 μL, per well). After washing 5 times in 1% acetic acid and air-drying, bound SRB was dissolved in 10 mM unbuffered Tris base (pH 10.5; 100 μL, per well). Bound SRB was then read by absorbance at 492 nm on a SpectraMax plate reader (Molecular Devices). The percent survival was then calculated based upon the absorbance values relative to control wells (0 μM SBP in 0.1% DMSO).
# GL-26 glioma cells [2] = experiment: SRB recovery assay (48 hr drug, then 48 hr fresh media); format: cell-based, murine (C57BL/6); settings: 48 hr drug + 48 hr recovery
# Procedure: as §2
# To test if constant SBP administration is necessary to maintain growth inhibition, an SRB recovery assay was performed where GL-26 cells were plated and treated as above, but SBP was removed after a 48-hour incubation and replaced by fresh media. […]
# GL-26 glioma cells [3] = experiment: Propidium iodide cell cycle analysis by flow cytometry; format: cell-based, murine (C57BL/6); settings: SBP 48 hours
# Procedure: GL-26 cells were plated at 4000 cells/well in a 96 well plate in GL-26 media (DMEM/F12 supplemented with 10% FCS, 1% penicillin/streptomycin, 1% L-glutamine and 1% non-essential amino acids). The cells were treated 1 day post-plating with 0.1-25 μM SBP for 48 hours. The cells were then detached with Trypsin/EDTA (Cellgro), washed and resuspended at 500,000 cells/ml in ice cold Na+/K+ balanced PBS and fixed by gently adding 70% ethanol and incubating for 2 hrs at 4° C. GL-26 cells were then resuspended in 300-500 μl PI/Triton X-100 staining solution: 10 ml of 0.1% (v/v) Triton X-100 (Sigma) in Na+/K+ balanced PBS with 2 mg DNAse-free RNAse A (Sigma) and 0.40 ml of 500 μg/ml PI (Roche). The stain was allowed to incubate at 37° C. for 15 minutes before acquisition on a BD FacsCanto II flow cytometer.
# [4] = test system: GL-26 murine glioma cells; experiment: SRB growth assay of SBP and gold complexes on GL-26 (Example 4); format: cell-based, murine (C57BL/6); settings: Mus musculus, GL26, 48 hr, read-out: concentration inhibiting GL-26 by 50%
# Procedure: as §1, with “mice, was used.” for “mice.”, “L-glutamine,” for “Lglutamine,”
# as §2, with “al (21).” for “al. (22).”, “μL” for “μL,”, “The plate was then washed 5 times with de-ionized water, air dried, and stained with 0.4% SRB for 10 min (50 μL, per well). After washing 5 times in 1% acetic acid and air-drying, bound SRB was dissolved in 10 mM unbuffered Tris base (pH 10.5; 100 μL, per well).” left out
structure (smiles),measurement,setting,value
"CCC(C)c1ccc2ccc3ccc(C(C)CC)nc3c2n1 (stereo not shown) [Compound 1, 2,9-di-sec-butyl-1,10-phenanthroline]",inhibition at 6 µM,"[1]; 6 μM, 48 hours, read-out: HFF growth inhibition",~20%
same,inhibition at 25 µM,"[1]; 25 μM, 48 hours, read-out: HFF growth inhibition",36.9 ± 1.3%
same,IC50,"[1]; not reached at 25 μM, read-out: IC50 on non-cancerous human fibroblast cells",> 25000 nM
same,GL-26 cell growth inhibition 48 hours after completion of treatment,GL-26 glioma cells [2]; 0.8 mM SBP (so in the source),31.5±6.6%
same,GL-26 cell growth inhibition after extra incubation period,GL-26 glioma cells [2]; 1.6-25 mM SBP (so in the source),up to 85.4±0.2%
same,cell cycle effect (propidium iodide),GL-26 glioma cells [3],not arrested in the G1 phase
same,IC50,[4],800 to 1600 nM
